Measurements taken from US10434143B2, “Method of treating anemia caused by ribavirin treatment of hepatitis C using erythropoietin alpha” (priority 2001, dated 2019).
Values joined by “and” are separate entries in the source; they are usually repeats but may differ in a detail not shown here. Equal values may be shown once.

Experiments:
hepatitis C virus [1] = conditions: with interferon, licensing trials, cited from earlier work
hepatitis C virus [2] = experiment: Study of interferon alone and interferon plus ribavirin for hepatitis C in HIV-infected patients; format: in vivo, human; conditions: interferon alone group, 3 months, 10 patients
Procedure: A study of interferon alone and interferon plus ribavirin for hepatitis C in HIV-infected patients was performed. Ten patients received interferon alone and 11 received the combination treatment of interferon alpha and ribavirin. Median liver biopsy fibrosis score for both groups was 2.1. In the interferon alone group, at 3 months, there was no change in HCV RNA, CD4 dropped from a median of 190 to 186 cells/ml and HIV RNA dropped from a median of 1500 copies per ml to less than 400. At the same time point, 3 months, in the combination group, the HCV RNA dropped from 3.2 million to less than about 600 copies/ml. […] The main adverse event was anemia which occurred in 5/21(23.8%). This was treated with erythropoietin 40,000 units weekly when the hemoglobin declined to 10 g/dl. […] This was the first report of this treatment in patients with HIV infection as well as hepatitis C.

[3] = format: in vivo, human
Procedure: In an open-label, prospective pilot study, 56 subjects with chronic HCV infection were treated with both RBV and IFN-α. Eighteen subjects with anemia (hemoglobin 10 g/dl or […]) and reduced exercise tolerance following IFN-α/RBV initiation were treated with Epoetin alpha (up to 40,000 units per week subcutaneously). […] At the time of epoetin alpha initiation, the mean hemoglobin level declined 25.4% (to 10.6 g/dL) in the group receiving this treatment. […] Two thirds of subjects receiving epoetin alpha reported improved symptoms. […] Fifty-six chronically HCV-infected (≥90 days) subjects who were treated with IFN-α (3 million units TIW) and RBV (1000 mg/d for subjects <75 kg or 1200 mg/d for subjects ≥75 kg) were entered into an open-label, pilot, prospective study at several centers. […] RBV doses were adjusted by treating physicians as clinically indicated throughout the study. Following INF-α/RBV initiation, subjects with new-onset anemia (hemoglobin ≤10 g/dL or ≥2 g/dL decrease in hemoglobin) or a decrease in hemoglobin accompanied by decreased exercise tolerance (providers' impressions) received epoetin alpha (up to 40,000 units per week, subcutaneously). […] After initiation of epoetin alpha therapy, subjects were evaluated at a 2-week interval for 8 weeks and every 4 weeks thereafter for a maximum of 40 weeks. At each visit, laboratory safety parameters were obtained and, for most subjects, health-care providers recorded whether improvement had occurred in symptoms that typically occur as a side-effect of anemia or after therapy with IFN-α/RBV (e.g., flu-like symptoms, fatigue, dyspnea). […] In addition, clinical benefit of epoetin alpha therapy was evaluated by comparing the percent decline in hemoglobin levels from baseline to initiation of epoetin alpha with the percent recovery in these levels by the last visit. Fisher's exact test or the t-test was used to evaluate the significance of differences between groups with respect to demographic characteristics.

[4] = Erythropoietin 40,000 units weekly for ribavirin-induced anemia; format: in vivo, human
Procedure: A study of interferon alone and interferon plus ribavirin for hepatitis C in HIV-infected patients was performed. Ten patients received interferon alone and 11 received the combination treatment of interferon alpha and ribavirin. Median liver biopsy fibrosis score for both groups was 2.1. In the interferon alone group, at 3 months, there was no change in HCV RNA, CD4 dropped from a median of 190 to 186 cells/ml and HIV RNA dropped from a median of 1500 copies per ml to less than 400. At the same time point, 3 months, in the combination group, the HCV RNA dropped from 3.2 million to less than about 600 copies/ml. […] This was treated with erythropoietin 40,000 units weekly when the hemoglobin declined to 10 g/dl. […] This was the first report of this treatment in patients with HIV infection as well as hepatitis C. […] This was done in both HIV seronegative individuals and HIV seropositive individuals.

[5] = format: in vivo, human; remark: listed apart in the source
Procedure: Once-weekly recombinant human erythropoietin (epoetin alpha) facilitates optimal ribavirin (RBV) dosing in Hepatitis C virus (HCV)-infected patients receiving Interferon-α-2b (IFN)/RBV combination therapy. RBV dose reduction or discontinuation has been the standard approach to treating hemoglobin (Hb) decreases resulting from IFN/RBV therapy in HCV-infected patients. […] An open-label, randomized, multicenter study was conducted to assess the efficacy and tolerability of once-weekly (QW) epoetin alpha therapy for hemoglobin decreases associated with IFN/RBV therapy and to evaluate the impact of epoetin alpha therapy on RBV dosing. HCV-infected patients who developed hemoglobin levels ≤12 g/dL during the first 24 weeks of combination IFN/RBV therapy (n=60) were randomly assigned to treatment with epoetin alpha (40000 units) subcutaneously once weekly for up to 36 weeks or standard of care (SOC). The primary and secondary efficacy end points were changes from baseline (at Week 16) in hemoglobin level and RBV dose, respectively.

NC(=O)c1ncn([C@@H]2O[C@H](CO)[C@@H](O)[C@H]2O)n1 [ribavirin]
sustained virologic response rate (hepatitis C virus [1]; at least 10.6 mg/kg ribavirin): over 40% | SVR (response) rate (hepatitis C virus [1]; less than 10.6 mg/kg ribavirin): 28%

IFN-α
change in HCV RNA (hepatitis C virus [2]): no change

epoetin alpha: recombinant human erythropoietin (r-HuEPO, Epoetin alpha)
mean hemoglobin level at the last study visit ([3]; epoetin alpha up to 40,000 units per week s.c., N=18, mean follow-up 25.3 weeks): 12.7 g/dL and 12.7 ± 1.7 g/dL | Dyspnea (%) ([3]; human, in vivo): 80.0% | Dyspnea, median duration (wks) ([3]; human, in vivo): 6.6 wks | Fatigue (%) ([3]; human, in vivo): 73.3% | Fatigue, median duration (wks) ([3]; human, in vivo): 8.2 wks | Flu-like symptoms ([3]; human, in vivo): 46.7 | Flu-like symptoms, median duration (wks) ([3]; human, in vivo): 2.7 wks | recovery in mean hemoglobin level after initiation of epoetin alpha ([3]; percent recovery by the last visit): 65.5% and 65.5±56.3% | hemoglobin after erythropoietin treatment ([4]; begun when hemoglobin declined to 10 g/dl, after a median of 4 weeks, HCV/HIV patients): 12.7 g/dL | quality of life ([4]; hemoglobin 11 gr/dl or less, HIV seronegative and seropositive): substantial increase in their quality of life | mean hemoglobin level at last available assessment ([5]; P<0.05 vs SOC): 13.8 g/dL | mean change in RBV dose at last available assessment ([5]; baseline 998 mg/day, P<0.05 vs SOC): -25 mg/day | mean change from baseline hemoglobin level at last available assessment ([5]; epoetin alpha 40000 units s.c. once weekly, baseline 11.0 g/dL, P<0.05 vs SOC): +2.7 g/dL | tolerability ([5]; human, in vivo): well tolerated | patients treated with RBV doses greater than 10.6 mg/kg per day ([5]; last available assessment, P<0.01 vs SOC): 77%
